From PMC12715762, “Discovery of VU6052254: A Novel, Potent M1 Positive Allosteric Modulator” (ACS Chemical Neuroscience, 2025)

Experiments:
[1] = test system: Calcium Channel L-Type, Benzothiazepine; experiment: Eurofins radioligand binding; conditions: Rat
[2] = plasma protein binding, equilibrium dialysis (human); assay type: in vitro ADME; conditions: pH 7.4, read-out: fu,plasma
Experimental: (§1) Plasma protein binding and Brain homogenate binding: Determination of fraction unbound (f u) in plasma was conducted in vitro via equilibrium dialysis using HTDialysis (HTD) membrane plates. The top half of the plate was filled with 100 uL of Dubelco’s Phosphate Buffered Saline, pH 7.4 (DPBS). Compounds were diluted into plasma from each species (5 µM final concentration), which was aliquoted in triplicate to the ‘bottom half’ of the prepared HTD plate wells. The HTD plate was sealed and incubated for 6 hours at 37 °C. Following incubation, each well (both top and bottom halves) were transferred (20 µL) to the corresponding wells of a 96-shallow-well (V-bottom) plate. […]
(§2) The unbound fraction (f u) was calculated following the equation below, and mean values for each species were calculated from 3 replicates.
(§3) A similar approach was used to determine the degree of brain homogenate binding, which employed the same methodology and procedure with the following modifications: 1) a final compound concentration of 1 μM was used, 2) naïve rat brains were homogenized in DPBS (1:3 composition of brain: DPBS, w/w) using a Mini-Bead Beater™ machine in order to obtain brain homogenate, which was then treated in the same manner as the plasma samples in the previously described plasma protein binding assay. Fraction unbound for both plasma and brain samples was determined using Equation 4. […]

CYP 3A4 = CYP 3A4 (Homo sapiens, UniProt P08684); experiment: CYP450 inhibition; assay type: in vitro ADME
Sequence of CYP 3A4 (P08684 whole entry): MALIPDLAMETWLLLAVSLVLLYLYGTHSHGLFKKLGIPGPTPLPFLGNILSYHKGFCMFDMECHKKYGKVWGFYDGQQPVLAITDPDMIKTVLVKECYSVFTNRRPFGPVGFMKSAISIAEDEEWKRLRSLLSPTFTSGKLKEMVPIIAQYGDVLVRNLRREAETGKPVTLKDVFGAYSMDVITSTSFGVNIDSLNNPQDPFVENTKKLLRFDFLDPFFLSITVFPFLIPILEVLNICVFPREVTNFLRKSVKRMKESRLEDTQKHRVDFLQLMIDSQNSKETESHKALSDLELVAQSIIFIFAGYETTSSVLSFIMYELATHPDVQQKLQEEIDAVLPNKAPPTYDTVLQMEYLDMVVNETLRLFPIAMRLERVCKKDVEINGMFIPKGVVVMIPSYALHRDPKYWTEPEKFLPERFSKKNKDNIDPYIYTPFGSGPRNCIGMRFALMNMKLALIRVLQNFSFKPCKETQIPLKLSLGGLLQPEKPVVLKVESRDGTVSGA

[3] = brain homogenate binding (rat); assay type: in vitro ADME; conditions: pH 7.4, rat (r), read-out: fu,brain
Experimental: as §1, §2, §3

Muscarinic M2 = Muscarinic M2 (Homo sapiens, UniProt P08172); experiment: Eurofins radioligand binding
Sequence of Muscarinic M2 (P08172 whole entry): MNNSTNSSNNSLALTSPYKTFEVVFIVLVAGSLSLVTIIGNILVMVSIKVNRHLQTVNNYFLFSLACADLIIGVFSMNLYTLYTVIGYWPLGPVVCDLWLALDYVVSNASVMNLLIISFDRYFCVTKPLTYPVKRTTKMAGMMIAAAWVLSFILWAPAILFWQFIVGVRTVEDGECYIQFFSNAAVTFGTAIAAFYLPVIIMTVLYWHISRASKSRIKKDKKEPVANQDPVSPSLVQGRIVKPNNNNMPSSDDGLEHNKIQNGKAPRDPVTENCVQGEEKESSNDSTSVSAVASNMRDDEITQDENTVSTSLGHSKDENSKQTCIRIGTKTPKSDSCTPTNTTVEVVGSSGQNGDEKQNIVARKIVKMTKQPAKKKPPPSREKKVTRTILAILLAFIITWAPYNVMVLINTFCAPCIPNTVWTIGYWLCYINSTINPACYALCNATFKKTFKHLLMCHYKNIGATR

hERG potassium channel = hERG potassium channel (Homo sapiens, UniProt Q12809); experiment: Eurofins radioligand binding
Sequence of hERG potassium channel (Q12809 whole entry): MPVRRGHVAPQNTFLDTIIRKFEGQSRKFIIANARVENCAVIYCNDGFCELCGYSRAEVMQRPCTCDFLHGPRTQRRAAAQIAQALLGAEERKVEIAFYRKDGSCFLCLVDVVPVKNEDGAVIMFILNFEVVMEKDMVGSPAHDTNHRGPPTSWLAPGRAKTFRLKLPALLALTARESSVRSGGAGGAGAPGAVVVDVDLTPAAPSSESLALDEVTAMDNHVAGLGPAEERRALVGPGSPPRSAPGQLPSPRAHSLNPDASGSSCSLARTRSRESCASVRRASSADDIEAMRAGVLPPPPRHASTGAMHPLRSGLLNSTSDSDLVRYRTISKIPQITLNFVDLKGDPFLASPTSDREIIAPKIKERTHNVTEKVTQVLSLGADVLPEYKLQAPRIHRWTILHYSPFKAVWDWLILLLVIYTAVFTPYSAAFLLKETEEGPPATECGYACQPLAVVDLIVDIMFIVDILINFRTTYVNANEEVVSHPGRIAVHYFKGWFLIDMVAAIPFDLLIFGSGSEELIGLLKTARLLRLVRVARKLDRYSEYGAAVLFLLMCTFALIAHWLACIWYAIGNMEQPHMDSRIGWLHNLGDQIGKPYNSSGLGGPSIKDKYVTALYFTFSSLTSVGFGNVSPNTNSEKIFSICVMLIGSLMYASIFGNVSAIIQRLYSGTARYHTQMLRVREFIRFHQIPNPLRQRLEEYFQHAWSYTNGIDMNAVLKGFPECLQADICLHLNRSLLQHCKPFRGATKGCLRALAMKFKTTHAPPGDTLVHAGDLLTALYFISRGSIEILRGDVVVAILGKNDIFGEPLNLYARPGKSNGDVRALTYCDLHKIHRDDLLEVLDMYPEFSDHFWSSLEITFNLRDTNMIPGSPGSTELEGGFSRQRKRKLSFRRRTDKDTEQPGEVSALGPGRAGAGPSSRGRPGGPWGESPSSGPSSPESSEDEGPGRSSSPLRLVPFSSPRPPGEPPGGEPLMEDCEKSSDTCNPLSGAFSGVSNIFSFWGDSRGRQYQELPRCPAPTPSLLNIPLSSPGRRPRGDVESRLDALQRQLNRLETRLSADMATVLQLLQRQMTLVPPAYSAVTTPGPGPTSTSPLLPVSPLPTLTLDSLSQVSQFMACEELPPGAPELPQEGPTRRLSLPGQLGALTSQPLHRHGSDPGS

Opiate κ (OP2, KOP) = Opiate κ (OP2, KOP) (Homo sapiens, UniProt P41145); experiment: Eurofins radioligand binding
Sequence of Opiate κ (OP2, KOP) (P41145 whole entry): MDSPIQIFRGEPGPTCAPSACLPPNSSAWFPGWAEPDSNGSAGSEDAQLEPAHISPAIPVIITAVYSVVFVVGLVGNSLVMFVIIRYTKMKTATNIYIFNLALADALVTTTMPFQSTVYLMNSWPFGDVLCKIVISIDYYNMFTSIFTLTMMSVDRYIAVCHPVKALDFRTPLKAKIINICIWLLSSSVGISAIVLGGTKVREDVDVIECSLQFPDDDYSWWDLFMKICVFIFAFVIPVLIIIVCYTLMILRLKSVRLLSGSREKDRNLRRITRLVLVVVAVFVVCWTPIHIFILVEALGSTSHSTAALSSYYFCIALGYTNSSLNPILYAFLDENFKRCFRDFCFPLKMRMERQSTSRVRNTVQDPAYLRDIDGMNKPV

Melatonin MT1 = Melatonin MT1 (Homo sapiens, UniProt P48039); experiment: Eurofins radioligand binding
Sequence of Melatonin MT1 (P48039 whole entry): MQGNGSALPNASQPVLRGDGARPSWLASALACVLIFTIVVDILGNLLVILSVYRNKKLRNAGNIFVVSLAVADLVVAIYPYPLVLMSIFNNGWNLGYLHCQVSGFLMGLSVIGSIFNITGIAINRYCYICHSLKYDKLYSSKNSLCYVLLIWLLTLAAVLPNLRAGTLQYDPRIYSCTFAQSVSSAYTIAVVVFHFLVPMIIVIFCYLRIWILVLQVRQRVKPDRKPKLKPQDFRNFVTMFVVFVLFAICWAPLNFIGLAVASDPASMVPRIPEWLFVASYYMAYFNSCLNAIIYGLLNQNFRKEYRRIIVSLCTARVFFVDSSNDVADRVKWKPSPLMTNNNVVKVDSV

Opiate μ (OP3, MOP) = Opiate μ (OP3, MOP) (Homo sapiens, UniProt P35372); experiment: Eurofins radioligand binding
[4] = human PK and dose predictions (geometric mean of six methods)
Experimental: The predicted dose for 7 ranged from 32 to 84 mg QD. Based on this analysis, PAM 7 was advanced to safety and ADME studies.

Bradykinin B1 = Bradykinin B1 (Homo sapiens, UniProt P46663); experiment: Eurofins radioligand binding
Sequence of Bradykinin B1 (P46663 whole entry): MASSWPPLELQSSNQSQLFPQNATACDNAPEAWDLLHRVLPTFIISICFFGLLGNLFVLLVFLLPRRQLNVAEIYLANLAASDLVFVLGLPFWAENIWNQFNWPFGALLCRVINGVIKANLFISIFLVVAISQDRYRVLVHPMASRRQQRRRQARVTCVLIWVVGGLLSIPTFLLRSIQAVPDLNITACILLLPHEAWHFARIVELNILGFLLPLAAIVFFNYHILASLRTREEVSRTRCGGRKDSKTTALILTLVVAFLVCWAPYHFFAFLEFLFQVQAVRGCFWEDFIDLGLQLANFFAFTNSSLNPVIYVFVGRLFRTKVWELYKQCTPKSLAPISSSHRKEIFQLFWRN

Adenosine A3 = Adenosine A3 (Homo sapiens, UniProt P0DMS8); experiment: Eurofins radioligand binding
Sequence of Adenosine A3 (P0DMS8 whole entry): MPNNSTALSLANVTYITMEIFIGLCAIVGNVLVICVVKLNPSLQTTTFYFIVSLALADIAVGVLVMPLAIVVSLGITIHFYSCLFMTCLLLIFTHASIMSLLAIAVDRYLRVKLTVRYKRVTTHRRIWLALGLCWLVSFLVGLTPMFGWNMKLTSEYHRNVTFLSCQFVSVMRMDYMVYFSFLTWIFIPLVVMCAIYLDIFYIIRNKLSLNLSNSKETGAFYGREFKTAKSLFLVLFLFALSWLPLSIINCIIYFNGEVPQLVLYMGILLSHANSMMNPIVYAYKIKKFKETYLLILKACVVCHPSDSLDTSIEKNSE

Serotonin (5-HT2B) = Serotonin (5-HT2B) (Homo sapiens, UniProt P41595); experiment: Eurofins radioligand binding
[5] = rat oral dose escalation PK study; assay type: in vivo; conditions: for AUC(0-t) / Cmax / AUC / Tmax: Sprague-Dawley, plasma; for Cmax / AUC / Tmax: rat, po
Experimental: Pharmacokinetic profiles in rats following oral single escalating doses Single escalating oral dosing in Sprague-Dawley rats was performed at Frontage Laboratories according to their non-GLP Standard Operating Procedure and IACUC protocols. In short, […]
arterial blood was collected from a femoral artery catheter, and compound concentration was determined in plasma by LC-MS/MS following their non-GLP protocol. PK parameters were determined using Phoenix WinNonlin software (version 6.3). […]

Transporter, GABA = Transporter, GABA (Rattus norvegicus, UniProt P23978); experiment: Eurofins radioligand binding
Interleukin IL-1 R1 = Interleukin IL-1 R1 (Homo sapiens, UniProt P14778); experiment: Eurofins radioligand binding
Sequence of Interleukin IL-1 R1 (P14778 18-569): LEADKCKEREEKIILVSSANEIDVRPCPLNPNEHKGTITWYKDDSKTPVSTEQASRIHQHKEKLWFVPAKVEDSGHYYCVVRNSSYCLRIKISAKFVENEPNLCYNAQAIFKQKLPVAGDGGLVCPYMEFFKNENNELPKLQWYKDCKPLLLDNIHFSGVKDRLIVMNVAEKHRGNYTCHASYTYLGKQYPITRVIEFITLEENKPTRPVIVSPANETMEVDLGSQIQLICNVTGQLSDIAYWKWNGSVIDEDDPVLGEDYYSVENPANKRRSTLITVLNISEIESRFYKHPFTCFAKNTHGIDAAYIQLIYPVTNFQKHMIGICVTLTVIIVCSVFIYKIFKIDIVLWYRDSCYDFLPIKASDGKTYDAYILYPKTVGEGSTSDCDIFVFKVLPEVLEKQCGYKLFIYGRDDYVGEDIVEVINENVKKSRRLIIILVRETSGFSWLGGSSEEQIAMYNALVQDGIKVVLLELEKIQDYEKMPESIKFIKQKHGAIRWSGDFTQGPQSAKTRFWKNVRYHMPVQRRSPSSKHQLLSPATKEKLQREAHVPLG

[6] = 10 mg/kg, rat PO 10 mpk, 10% Tween
[7] = 10 mg/kg, rat PO 10 mpk, 100% PEG
[8] = 30 mg/kg, rat PO 30 mpk, 10% Tween
[9] = 30 mg/kg, rat PO 30 mpk, 100% PEG
[10] = 100 mg/kg, rat PO 100 mpk, 10% Tween
[11] = 100 mg/kg, rat PO 100 mpk, 100% PEG

With `Cn1cc2c(-c3cc(F)c(CN4Cc5ncccc5C4=O)c(F)c3)ccc(C(C)(C)O)c2n1` [compound 7] the “% Inhibition at 10 µM” value [1] was 80%, the fraction unbound at 6 h, 5 µM [2] was 0.037 and the IC50 (CYP 3A4) was greater than 30 µM. The fraction unbound at 6 h, 1 μM [3] was 0.027, the inhibition at 10 µM (Muscarinic M2) was 3% and the inhibition at 10 µM (hERG potassium channel) was 2%. The inhibition at 10 µM (Opiate κ (OP2, KOP)) was 15%, the inhibition at 10 µM (Melatonin MT1) was -1% and the inhibition at 10 µM (Opiate μ (OP3, MOP)) was 2%. The predicted human dose ([4]; QD) was 32 to 84 mg, the “predicted human CLp” value ([4]; geometric mean of six methods) was 2.6 mL/min/kg and the “predicted human Vss” value ([4]; geometric mean of six methods) was 1.16 L/kg. For the same molecule, the “predicted human oral bioavailability” value ([4]; geometric mean of six methods) was 79%, the “predicted human t1/2” value ([4]; geometric mean of six methods) was 5.1 h and the inhibition at 10 µM (Bradykinin B1) was 0%. It also gave an inhibition at 10 µM (Adenosine A3) of 8%, an inhibition at 10 µM (Serotonin (5-HT2B)) of 20% and an AUC(0-t) ([5]; rat PO 10 mg/kg, 10% aqueous Tween 80 suspension) of 23800 ng·h/mL. It also gave an AUC(0-t) ([5]; rat PO 30 mg/kg, 10% aqueous Tween 80 suspension) of 66500 ng·h/mL, an AUC(0-t) ([5]; rat PO 100 mg/kg, 10% aqueous Tween 80 suspension) of 96200 ng·h/mL and a Cmax ([5]; 10 mg/kg, rat PO 10 mg/kg, 10% aqueous Tween 80 suspension) of 2340 ng/mL. For the same molecule, the AUC [5, 6] was 23800 ng·h/mL, the Tmax [5, 6] was 2.17 h and the AUC [5, 7] was 20600 ng·h/mL. The Cmax [5, 7] was 2390 ng/mL, the Tmax [5, 7] was 3.33 h and the Cmax ([5]; 30 mg/kg, rat PO 30 mg/kg, 10% aqueous Tween 80 suspension) was 7640 ng/mL. It also gave an AUC [5, 8] of 66700 ng·h/mL, a Tmax [5, 8] of 2.67 h and an AUC [5, 9] of 115000 ng·h/mL. It also gave a Cmax [5, 9] of 12200 ng/mL, a Tmax [5, 9] of 4 h and a Cmax ([5]; 100 mg/kg, rat PO 100 mg/kg, 10% aqueous Tween 80 suspension) of 10900 ng/mL. It also gave an AUC [5, 10] of 96800 ng·h/mL, a Tmax [5, 10] of 4 h and an AUC [5, 11] of 316000 ng·h/mL. For the same molecule, the Cmax [5, 11] was 24700 ng/mL, the Tmax [5, 11] was 4 h and the “cholinergic signs or adverse events in rat dose escalation” value ([5]; result in words) was “no cholinergic signs or adverse events were noted in rats”. For the same molecule, the inhibition at 10 µM (Transporter, GABA) was -12% and the inhibition at 10 µM (Interleukin IL-1 R1) was -10%.
